Key:
Assay type in all cases: cell-based, human
Details in all cases: 48 h
KK leukemic cell line = assay: Fixed propidium iodide staining, flow cytometry
Experimental: (§1) Adherent cell lines were plated at 35×10^4 cells/60 cm^2 dish the day before exposure to compound. Suspension cells were seeded at 25×10^4 cells/mL in a 6 well dish (Falcon) the day of exposure to compound. Mononucleated, T-cell depleted normal bone marrow cells were seeded at 50×10^4 cells/mL in a 6 well dish the day of exposure to compound. Cells were exposed to solvent control or approximate MTT50 and MTT30 concentrations of the compound. After 48 h of exposure to the compound, cells were harvested, fixed in 80% ethanol for 1 h on ice and labeled with 50 μg/mL propidium iodide (Sigma). Approximately 10^6 cells were analyzed using a XL-MCL flow cytometer (Coulter Corporation, Miami, Fla.) and a FACScalibar cytometer (Becton Dickinson, San Jose, Calif.). Profiles shown are a representative.
as §1, with “cm2” for “cm^2”, “concentrations.” for “concentrations of the compound.”, “representative. Cell viability counts and Pi staining were performed as previously described (Dimitroulakos, J, Nohynek, D, Backway, K L, Hedley, D W, Yeger, H, Freedman, M H, Minden, M D and Penn, L Z: Increased sensitivity of acute myeloid leukemias to lovastatin-induced apoptosis: A potential therapeutic approach. Blood 93: 1308-18, 1999).” for “representative.”

[1] = test system: WI38 non-transformed diploid fibroblasts; assay: Fixed propidium iodide staining, flow cytometry
Experimental: as §1
as §1, with “cm2” for “cm^2”, “concentrations.” for “concentrations of the compound.”, “representative. Cell viability counts and Pi staining were performed as previously described (Dimitroulakos, J, Nohynek, D, Backway, K L, Hedley, D W, Yeger, H, Freedman, M H, Minden, M D and Penn, L Z: Increased sensitivity of acute myeloid leukemias to lovastatin-induced apoptosis: A potential therapeutic approach. Blood 93: 1308-18, 1999).” for “representative.”

AML-3 leukemic cell line = assay: TUNEL, flow cytometry; design: unit: %
Experimental: (§2) Adherent cell lines were plated at 35×10^4 cells/60 cm^2 dish the day before exposure to compound. Suspension cells were seeded at 25×10^4 cells/mL in a 6 well dish (Falcon) the day of exposure to compound. Mononucleated, T-cell depleted normal bone marrow cells were seeded at 50×10^4 cells/mL in a 6 well dish the day of exposure to compound. Cells were exposed to solvent control or approximate MTT50 and MTT30 concentrations of the compound. After 48 h of exposure to the compound, cells were harvested and fixed with a final concentration of 4% formaldehyde. Fixed cells were stored at −20° C. in 70% ethanol for no more than 5 days. Approximately 10^5 cells were pelleted and labeled with 0.02 mM Biotin-dUTP and 12.5 U TdT enzyme in a 1× reaction buffer (200 mM potassium cacodylate, 25 mM Tris-HCl, 25 μg/mL bovine serum albumin, pH 6.6), 2.5 mM CoCl2 and 0.01 mM dTTP (Roche Molecular Biochemicals, Laval, QC, Canada) for 45 min at 37° C. Samples were washed and incubated in 200 μL of 1:1000 fluorescein isothiocyanate (FITC)-conjugated avidin (Sigma) in 4×SSC, 5% skim milk powder and 0.05% Tween-20 (Sigma). Following 1 h of mixing at room temperature, the samples were washed and resuspended in 500 μL of D-PBS containing 2.5 μg/mL DNase-free RNase (Boehringer Mannheim) and 10 μg/mL PI. Following a 30 min incubation at room temperature, cells were analyzed using a XL-MCL flow cytometer (Coulter Corporation, Miami, Fla.) and a FACScalibar cytometer (Becton Dickinson, San Jose, Calif.). Profiles shown are representative of one experiment.
as §2, with “? s” for “Cells”, “appr ? nate” for “approximate”, “of” for “of the”, “Pl.” for “PI.”

B1 leukemic cell line = assay: TUNEL, flow cytometry
Experimental: as §2
as §2, with “? s” for “Cells”, “appr ? nate” for “approximate”, “of” for “of the”, “Pl.” for “PI.”

G2 leukemic cell line = assay: TUNEL, flow cytometry
Experimental: as §2
as §2, with “? s” for “Cells”, “appr ? nate” for “approximate”, “of” for “of the”, “Pl.” for “PI.”

NB-4 leukemic cell line = assay: TUNEL, flow cytometry
Experimental: as §2
as §2, with “? s” for “Cells”, “appr ? nate” for “approximate”, “of” for “of the”, “Pl.” for “PI.”

[2] = test system: WI38 non-transformed diploid fibroblasts; assay: TUNEL, flow cytometry
Experimental: as §2
as §2, with “? s” for “Cells”, “appr ? nate” for “approximate”, “of” for “of the”, “Pl.” for “PI.”

[3] = dose 50 uM (229 ug/mL) as printed

c1ccc(SSc2ccccc2)cc1 [D, diphenyl disulphide]
% pre-G1 (Fixed PI) (KK leukemic cell line; dose 91.6 uM (20 ug/mL)): 33.9%

CSSc1ccc([N+](=O)[O-])cc1 [M, methyl p-nitrophenyl disulphide]
% pre-G1 (Fixed PI) ([1]; dose 40 uM): 16% | % pre-G1 (Fixed PI) ([1]; dose 120 uM as printed): 119%

CSCSCS(C)(=O)=O [B]
% pre-G1 (Fixed PI) (KK leukemic cell line; dose 107 uM (20 ug/mL)): 1.1% | TUNEL FITC +ve (AML-3 leukemic cell line; dose 107 uM (20 ug/mL)): 3.85

CS(=O)(=O)CSSc1ccccc1 [E, 5-phenyl-2,4,5-trithiapentane 2,2-dioxide]
% pre-G1 (Fixed PI) (KK leukemic cell line; dose 85.3 uM (20 ug/mL)): 34.7%

CCC(=O)OCSSc1ccccc1 [Compound Q, 1-phenyl-1,2-dithiapropyl propionate]
% pre-G1 (Fixed PI) (KK leukemic cell line; dose 20 uM): 15% | % G2 increase (Fixed PI) (KK leukemic cell line; dose 40 uM): −4% | % pre-G1 (Fixed PI) (KK leukemic cell line; dose 40 uM): 43% | % G2 increase (Fixed PI) ([1]; dose 20 uM): +3% | % pre-G1 (Fixed PI) ([1]; dose 20 uM): 1% | % G2 increase (Fixed PI) ([1]; dose 40 uM): +10% | % pre-G1 (Fixed PI) ([1]; dose 40 uM): 1% | % TUNEL +ve (B1 leukemic cell line; dose 25 uM): 32% | % TUNEL +ve (B1 leukemic cell line; dose 50 uM): 78% | % TUNEL +ve (G2 leukemic cell line; dose 25 uM): 23% | % TUNEL +ve (G2 leukemic cell line; dose 50 uM): 58% | % TUNEL +ve (NB-4 leukemic cell line; dose 50 uM): 16% | % TUNEL +ve ([2]; dose 25 uM): 4% | % TUNEL +ve ([2]; dose 50 uM): 0.2%

COC(=O)CSSC [H, methyl 3,4-dithiopentanoate]
% pre-G1 (Fixed PI) (KK leukemic cell line; dose 133.4 uM (20 ug/mL)): 5.9% | % pre-G1 (Fixed PI) ([1]; dose 985 uM (150 ug/mL)): 0.7% | TUNEL FITC +ve (AML-3 leukemic cell line; dose 65.7 uM (10 ug/mL)): 10.2

CSSCC(=O)c1ccccc1 [Compound P, phenacyl methyl disulphide]
% pre-G1 (Fixed PI) ([1]; dose 50 uM): 2% | % pre-G1 (Fixed PI) ([1]; dose 150 uM): 52% | % TUNEL +ve (B1 leukemic cell line; dose 50 uM): 39% | % TUNEL +ve (B1 leukemic cell line; dose 100 uM): 67% | % TUNEL +ve (G2 leukemic cell line; dose 50 uM): 17% | % TUNEL +ve (G2 leukemic cell line; dose 100 uM): 53% | % TUNEL +ve (NB-4 leukemic cell line; dose 50 uM): 24% | % TUNEL +ve (NB-4 leukemic cell line; dose 100 uM): 0.2% | % TUNEL +ve ([2]; dose 50 uM): 0.70% | % TUNEL +ve ([2]; dose 100 uM): 1.7%

CSSCS(=O)(=O)c1ccc(C)cc1 [Compound C, α-p-toluenesulfonyl dimethyl disulphide]
% pre-G1 (Fixed PI) (KK leukemic cell line; dose 40.3 uM (20 ug/mL)): 20.6% | TUNEL FITC +ve (AML-3 leukemic cell line; dose 20.2 uM (10 ug/mL)): 22.4

CSCSSC [Compound N, 2,3,5-trithiahexane]
% G2 increase (Fixed PI) (KK leukemic cell line; dose 50 uM): +4% | % pre-G1 (Fixed PI) (KK leukemic cell line; dose 50 uM): 13% | % G2 increase (Fixed PI) (KK leukemic cell line; dose 150 uM): +5% | % pre-G1 (Fixed PI) (KK leukemic cell line; dose 150 uM): 10% | % G2 increase (Fixed PI) ([1]; dose 50 uM): +7% | % pre-G1 (Fixed PI) ([1]; dose 50 uM): 2% | % G2 increase (Fixed PI) ([1]; dose 150 uM): +25% | % pre-G1 (Fixed PI) ([1]; dose 150 uM): 4% | % TUNEL +ve (B1 leukemic cell line; dose 50 uM): 49% | % TUNEL +ve (B1 leukemic cell line; dose 100 uM): 44% | % TUNEL +ve (G2 leukemic cell line; dose 50 uM): 18% | % TUNEL +ve (G2 leukemic cell line; dose 100 uM): 19% | % TUNEL +ve (NB-4 leukemic cell line; dose 50 uM): 17% | % TUNEL +ve (NB-4 leukemic cell line; dose 100 uM): 19% | % TUNEL +ve ([2]; dose 50 uM): 0.7% | % TUNEL +ve ([2]; dose 100 uM): 2%

CS(=O)(=O)CSCS(C)(=O)=O [G, 2,4,6-trithiaheptane 2,2,6,6-tetraoxide]
% pre-G1 (Fixed PI) (KK leukemic cell line; dose 91.6 uM (20 ug/mL)): 3.8% | TUNEL FITC +ve (AML-3 leukemic cell line; dose 45.8 uM (10 ug/mL)): 3.0

CSSCOC(C)=O [I, 2,3-dithiabutyl acetate]
% pre-G1 (Fixed PI) (KK leukemic cell line; dose 65.7 uM (10 ug/mL)): 48.4% | TUNEL FITC +ve (AML-3 leukemic cell line; dose 32.8 uM (5 ug/mL)): 57.3

CS(C)(=O)=O [Compound A, dimethyl sulfone]
% pre-G1 (Fixed PI) (KK leukemic cell line; dose 212 uM (20 ug/mL)): 1.1%

CSSCCS(C)(=O)=O [F, 2,3,6-trithiaheptane 6,6,-dioxide]
% pre-G1 (Fixed PI) (KK leukemic cell line; dose 91.6 uM (20 ug/mL)): 3.8% | % G2/M (Fixed PI) [1, 3]: 17.8% | % pre-G1 (Fixed PI) [1, 3]: 0.1% | TUNEL FITC +ve (AML-3 leukemic cell line; dose 45.8 uM (10 ug/mL)): 31.9

Source: US20030220524A1, “Sulfur containing compounds” (priority 2000, published 2003)
